According to article PMC4894652 (Neuron, 2016):

Each compound was assayed against T1, DmSLC22A (CG7442) (Drosophila melanogaster, UniProt Q7JRD5). Conditions: labelled compound; doxycycline-induced vs un-induced cells.
T1 sequence (Q7JRD5 1-568): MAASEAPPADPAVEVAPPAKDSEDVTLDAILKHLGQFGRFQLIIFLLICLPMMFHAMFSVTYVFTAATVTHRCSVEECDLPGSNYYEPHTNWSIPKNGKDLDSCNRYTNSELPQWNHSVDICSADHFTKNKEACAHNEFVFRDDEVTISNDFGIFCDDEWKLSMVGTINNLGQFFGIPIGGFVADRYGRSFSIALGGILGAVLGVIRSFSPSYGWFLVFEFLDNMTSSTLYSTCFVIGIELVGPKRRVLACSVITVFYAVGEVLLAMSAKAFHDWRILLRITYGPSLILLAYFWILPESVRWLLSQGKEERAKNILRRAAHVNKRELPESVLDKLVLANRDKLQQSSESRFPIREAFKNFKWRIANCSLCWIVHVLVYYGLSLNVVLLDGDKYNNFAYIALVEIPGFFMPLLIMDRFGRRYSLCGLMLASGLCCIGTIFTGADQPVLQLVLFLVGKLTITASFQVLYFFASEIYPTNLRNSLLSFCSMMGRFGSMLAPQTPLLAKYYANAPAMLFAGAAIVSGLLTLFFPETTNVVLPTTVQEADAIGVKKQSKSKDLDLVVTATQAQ
Assay type: cell-based

SMILES | apparent Km
NCCc1c[nH]c2ccc(O)cc12 [serotonin] | Table S2 lists the apparent Km and Vmax values for each substrate
NCCc1c[nH]cn1 [histamine] | Table S2 lists the apparent Km and Vmax values for each substrate
C[n+]1ccc(-c2ccccc2)cc1 [MPP] | Table S2 lists the apparent Km and Vmax values for each substrate
CC[N+](CC)(CC)CC [TEA] | Table S2 lists the apparent Km and Vmax values for each substrate
C[N+](C)(C)CCO [choline] | choline and acetylcholine are transported with low μM Km values
CC(=O)OCC[N+](C)(C)C [acetylcholine] | choline and acetylcholine are transported with low μM Km values
C[N+](C)(C)CC(=O)[O-] [betaine] | Table S2 lists the apparent Km and Vmax values for each substrate
